{"source": "patent US20260191815A1", "about": "“THIOACRYLAMIDE DERIVATIVES FOR USE IN THE PREVENTION OR TREATMENT OF LIVER FIBROSIS” (CMR CUREDIAB METABOLIC RESEARCH GMBH, priority 2022, published 2026)", "key": {"[1]": {"tested_on": "caspase 3/7 activity in primary human hepatocytes", "assay": "Caspase 3/7 activity provoked by palmitate in primary human hepatocytes", "type": "cell-based", "method": "(§1) The potential protective effect of HK1 and HK3 on caspase 3/7 activity in HepG2 cells and primary human hepatocytes was analysed.\n(§2) HepG2 cells were obtained from Merck (Darmstadt, Germany) (ECACC-certified), while primary human hepatocytes were obtained from Thermo Fisher Scientific (Waltham, MA, USA), and all were cultured according to the instructions of the respective manufacturers. During experiments, cells were cultured in serum-free medium. Unless otherwise stated, cells were treated with 200 μM bovine serum albumin (BSA)-conjugated palmitate (Cayman Chemicals, Ann Arbor, MI) alone or in combination with 10 μM HK1 (Taros Chemicals GmbH & Co. KG, Dortmund, Germany) and HK3 (Taros Chemicals GmbH & Co. KG, Dortmund, Germany) 30 min prior to palmitate exposure for 24 hours. The vehicle BSA was used according to the palmitate concentration and DMSO according to HK1 and HK3 concentration. 2 μM Staurosporine (Abcam, Cambridge, GB) was used as a positive and 100 μM Caspase 3/7 inhibitor (CI) (Cayman Chemicals) as a negative control.\n(§3) Differences were analysed by one-way ANOVA."}, "[2]": {"tested_on": "caspase 3/7 activity in HepG2 cells", "assay": "Caspase 3/7 activity provoked by palmitate in HepG2 cells", "type": "cell-based", "method": "as §1, §2, §3\nA hepatoprotective effect was determined as described in Example 4. A treatment was performed with HK1, HK2, HK3, HK4 or HK5 (100 nM) either alone or in combination with palmitate (200 μM).\nDifferences were analysed by one-way ANOVA, n=4."}, "[3]": {"tested_on": "vascular endothelial growth factor A (VEGFA) secretion by LX2 cells", "assay": "Olink Inflammation immunoassay of LX2 supernatants: VEGFA", "type": "cell-based, human", "conditions": "5 ng/ml TGF-β1", "method": "(§4) The human hepatic stellate cell line LX2 was purchased from Merck. The cells were used up to passage ten and incubated under sterile conditions at 37° C. and 5% CO2. The cells were cultivated in medium containing Dulbecco's Modified Eagle's Medium with 4.5 g/l glucose (ThermoFisher), 4 mmol/l glutamine (ThermoFisher), 2% fetal bovine serum (FBS) (Merck), 100 U/ml penicillin and 100 μg/ml streptomycin (Merck). After 2 days, LX2 cells were starved for FBS for 24 h and then pretreated with 10 μM HK1 (Taros Chemicals GmbH & Co. KG) or 10 μM HK3 (Taros Chemicals GmbH & Co. KG) for 30 min. Subsequently, 5 ng/ml recombinant TGF-β1 (R&D Systems, Minneapolis, MN, USA) was added to the hepatic stellate cell cultures for 24 h. LX2 cells were also incubated with 5 ng/ml TGF-β1 alone as positive control for the hepatic stellate cell activation. […]\n(§5) LX2 cells were cultured and treated as described in Example 1. […] This protein quantification method is based on a proximity extension assay technology, which combines a dual-recognition immunoassay using two matched antibodies labelled with DNA oligonucleotides, with a polymerase chain reaction (PCR) amplification and a microfluidic quantitative real-time PCR as readout. […]\n(§6) Differences were analysed by one-way ANOVA followed by the Tukey method as correction for multiple testing."}, "[4]": {"tested_on": "interleukin-6 (IL-6) secretion by LX2 cells", "assay": "Olink Inflammation immunoassay of LX2 supernatants: IL-6", "type": "cell-based, human", "conditions": "5 ng/ml TGF-β1", "method": "(§7) The human hepatic stellate cell line LX2 was purchased from Merck. The cells were used up to passage ten and incubated under sterile conditions at 37° C. and 5% CO2. The cells were cultivated in medium containing Dulbecco's Modified Eagle's Medium with 4.5 g/l glucose (ThermoFisher), 4 mmol/l glutamine (ThermoFisher), 2% fetal bovine serum (FBS) (Merck), 100 U/ml penicillin and 100 μg/ml streptomycin (Merck). After 2 days, LX2 cells were starved for FBS for 24 h and then pretreated with 10 μM HK1 (Taros Chemicals GmbH & Co. KG) or 10 μM HK3 (Taros Chemicals GmbH & Co. KG) for 30 min. Subsequently, 5 ng/ml recombinant TGF-β1 (R&D Systems, Minneapolis, MN, USA) was added to the hepatic stellate cell cultures for 24 h. LX2 cells were also incubated with 5 ng/ml TGF-β1 alone as positive control for the hepatic stellate cell activation. Recombinant TGF-β1 was dissolved in sterile 4 mmol/l HCl (Merck) containing 0.1% bovine serum albumin (Roth Karlsruhe, Germany) as carrier protein. HK1 and HK3 were dissolved in sterile dimethyl sulfoxide (DMSO) (Sigma-Aldrich, Munich, Germany). Stimulations with 10 μM HK1, 10 μM HK3 and the corresponding vehicles (HCl and DMSO with or without HCl) alone for 24 h were also included as treatments.\nLX2 cells were cultured and treated as described in Example 1. After the incubation time, the supernatants of LX2 cells were collected, centrifuged for 10 min at 2000×g at 4° C. and transferred to new tubes to measure 92 proteins in the cell culture supernatants simultaneously using the Olink Inflammation multiplex immunoassay (Olink proteomics, Uppsala, Sweden). This panel covers 92 proteins, including pro- and anti-inflammatory cytokines, growth factors, chemokines and factors involved in biological processes such as apoptosis, inflammatory and immune response, cell adhesion, chemotaxis, or fibrosis. This protein quantification method is based on a proximity extension assay technology, which combines a dual-recognition immunoassay using two matched antibodies labelled with DNA oligonucleotides, with a polymerase chain reaction (PCR) amplification and a microfluidic quantitative real-time PCR as readout. The biomarker concentrations are given as normalized protein expression (NPX) values, which were generated from the threshold cycle values from the qPCR, and represent an arbitrary unit on a log 2 scale.\nas §6"}, "[5]": {"tested_on": "alpha-1 type 1 collagen (COL1A1) protein in LX2 cells", "assay": "Simple Western of COL1A1 protein in TGF-β1-stimulated LX2 hepatic stellate cells", "type": "cell-based, human", "conditions": "5 ng/ml TGF-β1, 24 h, LX2 cells", "method": "as §7\n(§8) For the measurement of the pro-fibrotic proteins, Western Blotting was performed. Proteins were extracted from whole cell lysate of LX2 cells using RIPA lysis buffer containing 50 mmol/l Tris-HCl (pH 8.0), 150 mmol/l NaCl, 1% IGEPAL® CA-630, 0.5% sodium deoxycholate, 0.1% sodium dodecyl sulfate, 10% PhosSTOP Phosphatase Inhibitor Cocktail (Roche, Basel, Switzerland) and 10% cOmplete Mini Protease Inhibitor Cocktail (Roche). Lysates were centrifuged at 14850×g for 15 min at 4° C. Then, the total protein content of the lysates was determined using a bicinchoninic acid protein assay (ThermoFisher Scientific) in accordance with the manufacturer's instructions. The quantification of protein abundance was performed by Simple Western size-based assays using a 12-230 kDa and 66-440 kDa Separation Module (ProteinSimple, San Jose, CA, USA) according to the manufacturer's instructions. This fully automated Western blotting system is based on a capillary electrophoresis technology. The separation, immobilization to the capillary wall via a proprietary, photoactivated capture chemistry and immunodetection of the proteins using a horseradish peroxidase (HRP)-conjugated secondary antibody and chemiluminescent substrate take place directly in the capillary without gel separation and transfer steps to blotting paper. The chemiluminescence is measured at multiple exposure times and automatically quantified by the Compass for Simple Western software (version 4.1.0) (ProteinSimple). The chemiluminescent signal for immunodetected proteins, which can be represented as an electropherogram or virtual blot-like image, is automatically quantified by calculation of the area under the curve of the peak.\n(§9) The software reports the molecular weight, the area (in an arbitrary unit and in percent) and signal to noise ratio for each protein detected. The primary antibodies for the recognition of endogenous levels of total alpha-1 type 1 collagen (COL1A1) protein (#72026) and total fibronectin 1 (FN1) protein (#26836) were purchased from Cell Signaling Technology (Danvers, MA, USA). The anti-rabbit HRP-linked secondary antibody was from ProteinSimple. […]\nas §6"}, "[6]": {"tested_on": "fibronectin 1 (FN1) protein in LX2 cells", "assay": "Simple Western of FN1 protein in TGF-β1-stimulated LX2 hepatic stellate cells", "type": "cell-based, human", "conditions": "5 ng/ml TGF-β1, 24 h, LX2 cells", "method": "as §7, §8, §9, §6"}, "[7]": {"tested_on": "leukaemia inhibitory factor (LIF) secretion by LX2 cells", "assay": "Olink Inflammation immunoassay of LX2 supernatants: LIF", "type": "cell-based, human", "conditions": "5 ng/ml TGF-β1", "method": "as §4, §5, §6"}}}
{"compound": "COC[C@@H]1CCCN1S(=O)(=O)c1ccc2c(c1)C(=O)C(=O)N2", "note": "[Caspase 3/7 inhibitor, reference compound]", "values": [{"measurement": "caspase 3/7 activity, % of control", "setting": "[1]; 100 μM inhibitor + palmitate 200 μM", "result": "21.23%±4.33%"}, {"measurement": "caspase 3/7 activity, % of control", "setting": "[2]; 100 μM caspase 3/7 inhibitor + palmitate 200 μM", "result": "29.65%±24.56%"}]}
{"compound": "CN[C@@H]1C[C@H]2O[C@@](C)([C@@H]1OC)n1c3ccccc3c3c4c(c5c6ccccc6n2c5c31)C(=O)NC4", "note": "[Staurosporine, reference compound]", "values": [{"measurement": "activity at 2 µM", "setting": "[2]; Homo sapiens, 2 μM, positive control", "result": 687, "unit": "%"}]}
{"compound": "CCCCCCCCCCCCCCCC(=O)O", "note": "[palmitate, reference compound]", "values": [{"measurement": "activity at 200 µM", "setting": "[1]; Hepatocyte, palmitate 200 μM alone, read-out: caspase 3/7 activity, % of control", "result": 129, "unit": "%"}, {"measurement": "activity at 200 µM", "setting": "[2]; Homo sapiens, palmitate 200 μM alone, 24 h, read-out: caspase 3/7 activity, % of control", "result": 429, "unit": "%"}]}
{"compound": "TGF-β1: recombinant TGF-β1 (R&D Systems), positive control for the hepatic stellate cell activation", "values": [{"measurement": "increased secretion of VEGFA compared to untreated LX2 cells", "setting": "[3]", "result": "13.89±2.40", "unit": "fold"}, {"measurement": "increased secretion of IL-6 compared to untreated LX2 cells", "setting": "[4]", "result": "4.99±2.01", "unit": "fold"}, {"measurement": "increase of protein levels of COL1A1 compared to untreated cells", "setting": "[5]", "result": "2.6±0.2", "unit": "fold"}, {"measurement": "increase of protein levels of FN1 compared to untreated cells", "setting": "[6]", "result": "3.0±0.2", "unit": "fold"}, {"measurement": "increased secretion of LIF compared to untreated LX2 cells", "setting": "[7]", "result": "35.40±9.76", "unit": "fold"}]}
